Results on nine compounds are retold here after patent US20240009104A1, “PROCESS FOR EXTRACTION AND HEMI-SYNTHESIS OF PYRANOANTHOCYANINS AND SKINCARE COSMETIC FORMULATIONS CONTAINING THEM” (UNIVERSIDADE DO PORTO, priority 2021, published 2024).

By MIC is commonly meant the least concentration at which growth counts as inhibited. Higher therefore signals a need for much substance. What is called IC50 is the midpoint of a concentration-inhibition curve.

The nature of data set [1]: Determination of solar protection factor (SPF), spectrophotometric, Mansur equation. The class given is physicochemical. Particulars: for SPF: 1.0 mg in 5 mL ethanol, absorbance 290-320 nm, Mansur equation. As to the method: Sample preparation 1.0 mg of all samples was weighed, transferred to a 5 mL volumetric flask, diluted to volume with ethanol, followed by ultra-sonication for 5 min. The absorption spectra of samples in solution were obtained in the range of 290 to 450 nm using 1 cm quartz cell, and ethanol as a blank. The absorption data were obtained in the range of 290 to 320, every 5 nm, and 3 determinations were made at each point, followed by the application of Mansur equation.
Where CF (correction factor) is 10, EE (A) is erythmogenic effect of radiation with wavelength λ, Abs is Spectrophotometric absorbance values at wavelength λ. The obtained absorbance values are multiplied with EE (λ)×1 (λ) and then their summation is taken and multiplied with correction factor to obtain the SPF values.

The test system of another data set is M. luteus ATCC 4698. The data set can be described thus: MIC/MBC broth microdilution, M. luteus. Particulars: Micrococcus luteus, ATCC4698; M. luteus ATCC 4698, 24 h, 0.5 to 512 μg/mL. In kind it is cell-based. As for the experimental part:
(§1) Compounds/extracts were tested against the following bacterial strains: Pseudomonas aeruginosa ATCC 27853, Staphylococcus aureus ATCC 29213, Staphylococcus epidermidis ATCC 14990, Streptococcus pyogenes ATCC 19615, Micrococcus luteus ATCC 4698. Prior to each in vitro bioassay, fresh cultures were obtained for each strain using the appropriate medium and incubation conditions as follows. Staphylococcus spp. and P. aeruginosa were grown on Mueller-Hinton (MH) agar (Liofilchemsrl, Italy) for 24 h at 37° C., while M. luteus was grown in Tryptic Soy agar (TSA, Liofilchem srl, Italy) for 24 h at 30° C. and S. pyogenes on TSA with 5% defibrinated sheep blood (Thermo Fisher Scientific, USA) for 24 h at 37° C. in an atmosphere of 5% CO2.
(§2) Minimum inhibitory concentrations (MICs) of compounds/extracts were determined using a broth microdilution technique, following the recommendations of the Clinical and Laboratory Standards Institute. Briefly, fresh colonies of each strain were used to prepare the respective inocula with an optical density at 600 nm (OD600) equal to 0.1 (approximately 1^10^8 CFU/mL). For all strains, cation-adjusted Mueller-Hinton broth (MHB2, Sigma-Aldrich, USA) was used, but in the case of S. pyogenes, MBH2 was previously supplemented with 2.5% lysed horse blood (Thermo Fisher Scientific, USA). In 96-well, U-bottom, microplates, each compound was serially diluted in the respective medium from stock solutions (10 mg/mL in DMSO) to achieve in-test concentrations ranging from 0.5 to 512 μg/mL. Wells were inoculated so that the final concentration in eachwas of 5×10^5 CFU/mL. The microplates were incubated at 37° C. for 24 h. The MIC was defined as the lowest concentration of compound inhibiting the bacterial growth visible to the naked eye.

The next data set relates to S. aureus ATCC 29213. As to the kind of experiment: MIC/MBC broth microdilution, S. aureus. The class given is cell-based. Particulars: Staphylococcus aureus, ATCC29213; S. aureus ATCC 29213, 24 h, 0.5 to 512 μg/mL. As for the experimental part:
as §1, §2
In general terms: Dilution methods test growth across graded concentrations, often in twofold steps.

In another data set the test system is S. pyogenes ATCC 19615. As to the kind of experiment: MIC/MBC broth microdilution, S. pyogenes. In kind it is cell-based. The note with it: Streptococcus pyogenes, ATCC19615; S. pyogenes ATCC 19615, 24 h, 0.5 to 512 μg/mL. As for the experimental part: as §1, §2
Data set [2] relates to S. epidermidis ATCC 14990. As to the kind of experiment: MIC/MBC broth microdilution, S. epidermidis. In kind it is cell-based. Particulars: Staphylococcus epidermidis, ATCC14990; S. epidermidis ATCC 14990, 24 h, 0.5 to 512 μg/mL. As for the experimental part:
as §1, §2

Another data set concerns P. aeruginosa ATCC 27853. The data set can be described thus: MIC/MBC broth microdilution, P. aeruginosa. In kind it is cell-based. Particulars: Pseudomonas aeruginosa, ATCC27853; P. aeruginosa ATCC 27853, 24 h, 0.5 to 512 μg/mL. As to the method:
as §1, §2

Data set [3] in a line: Cytotoxicity to human fibroblasts and keratinocytes, MTT assay. The note with it: HaCat, HFF-1 and Heka cells, 0.78-100 μM. The class given is cell-based. As for the experimental part:
For this purpose, immortalized human foreskin fibroblasts HFF-1 were grown as monolayers from passage number 9-18 and maintained at 37° C. in an atmosphere of 5% CO2. For routine maintenance, the cells were cultured in 22.1 cm^2 plates as monolayers and maintained in Dulbecco's Modified Eagle Medium (DMEM, from Cell Lines Service), supplemented with 10% fetal bovine serum (FBS, from CLS) and 1% of antibiotic/antimycotic solution (100 units/mL of penicillin, 10 mg/mL of streptomycin and 0.25 mg/mL of amphotericin B from Sigma-Aldrich, St. Louis, MO, United States). The medium was replaced every two days and the cells were harvested every two weeks.
The cytotoxicity of the anthocyanins derivatives to HFF-1, Heka, and HaCat cells was evaluated using the standard MTT assay. Briefly, cells were seeded at a density of 5×10^4 cells or 1.5×10^4 cells/well onto 96-well plates and incubated at 37° C. in a 5% CO2 atmosphere. Cells were allowed to grow for 24 h, and serially diluted solutions of the different compounds (0.78-100 μM) were added to the wells. Then, cells were incubated for 48 h at 37° C., after which wells were washed once with phosphate buffered saline solution (PBS, Sigma-Aldrich, St. Louis, MO, United States), followed by addition of 0.45 mg/mL of MTT solution to each well. Crystals were allowed to form for 2 h. […] Absorbance was read at 570 nm.
A general note: Formazan colour is commonly taken as a measure of viable cells.

In the case of “4-(Dimethylamino)-cinnamyl-10-vinylene-pyranomalvidin-3-glucoside [VII-B]”, the SPF in data set [1] came out at 15.02 ± 0.07.
As for `O=C(O)C1=Cc2c(OC3OC(CO)C(O)C(O)C3O)c(-c3ccc(O)c(O)c3)[o+]c3cc(O)cc(c23)O1` (centres unmarked) [II-A, Carboxypyranocyanidin-3-glucoside], the MIC (in the data set with M. luteus ATCC 4698; in the data set with S. aureus ATCC 29213; in the data set on S. pyogenes ATCC 19615; in data set [2]; in the data set with P. aeruginosa ATCC 27853) was above 512 µg/mL throughout. Further, in data set [1], the SPF was found to be 20.71 ± 0.18.
`COc1cc(-c2[o+]c3cc(O)cc4c3c(c2OC2OC(CO)C(O)C(O)C2O)C=C(C(=O)O)O4)cc(OC)c1O` (centres unmarked) [II-B, Carboxypyranomalvidin-3-glucoside]: the IC50 at 48 h in data set [3] is above 100 µM. Besides, the MIC (against M. luteus ATCC 4698; in the data set on S. aureus ATCC 29213; in the data set on S. pyogenes ATCC 19615; in data set [2]; against P. aeruginosa ATCC 27853) was above 512 µg/mL throughout. Besides, the “UV protection (0.2 mg/mL)” value in data set [1] (0.2 mg/mL) is 13.92 ± 0.04. The compound further gave an SPF in data set [1] of 13.92 ± 0.04.
As to `CC1=Cc2c(OC3OC(CO)C(O)C(O)C3O)c(-c3ccc(O)c(O)c3)[o+]c3cc(O)cc(c23)O1` (centres unmarked) [III-A, Methylpyranocyanidin-3-glucoside], the MIC (against M. luteus ATCC 4698; in the data set on S. aureus ATCC 29213; against S. pyogenes ATCC 19615; in data set [2]; in the data set on P. aeruginosa ATCC 27853) was above 512 µg/mL throughout. In data set [1], this compound showed an SPF of 18.53 ± 0.15.
Compound `CN(C)c1ccc(C2=Cc3c(OC4OC(CO)C(O)C(O)C4O)c(-c4ccc(O)c(O)c4)[o+]c4cc(O)cc(c34)O2)cc1` (centres unmarked) [V-C, Pyranocyanidin-3-glucoside-(4-dimethylamino)-cinnamyl] gave an SPF in data set [1] of 13 ± 0.04.
As for `COc1cc(-c2[o+]c3cc(O)cc4c3c(c2OC2OC(CO)C(O)C(O)C2O)C=C(/C=C/c2c(O)cc(O)c3c2OC(c2ccc(O)c(O)c2)C(O)C3)O4)cc(OC)c1O` (centres unmarked) [VI-B, Vinylpyranomalvidin-3-O-glucoside-cathechin], the SPF in data set [1] is 8.35 ± 0.06.
Still for that read-out and setting: then `CN(C)c1ccc(/C=C/C=C/C2=Cc3c(OC4OC(CO)C(O)C(O)C4O)c(-c4ccc(O)c(O)c4)[o+]c4cc(O)cc(c34)O2)cc1` (centres unmarked) [VIII-A, 4-(Dimethylamino)-cinnamyl-10-butadienylidene-pyranocyanidin-3-O-glucoside], with 14.78 ± 0.02.
The compound “Cyanidin-3-O-glucoside-4-vinylcatechol [V-A]” showed an SPF in data set [1] of 24.00 ± 0.01.
Same read-out and setting: then “Malvidin-3-O-glucoside-4-vinylcatechol [V-B]”, with 10.02 ± 0.00.
